Data reported in patent publication US11040028B2, “Penicinotam derivative, preparation method and use thereof” (OCEAN UNIVERSITY OF CHINA, priority 2017, dated 2021).

Legend:
Type in all cases: cell-based
BHK-21 cells = experiment: Anti-fibrosis activity test: inhibition of BHK-21 cell proliferation (CCK-8); details: Mesocricetus auratus, BHK-21, 48 h
Outline: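 Proliferation inhibition was read as CCK-8 absorbance at 450 nm (2-hour development) relative to untreated blank, with IC50 fitted from the curve. Before that, adhered cells (2×10^4 cells/mL, 24 hours) had 48 hours' treatment at several concentrations, in triplicate, at 37° C/5% CO2; pirfenidone was the reference.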

[1] = test system: human lung fibroblasts HFL1; experiment: Anti-fibrosis activity test: inhibition of proliferation of human lung fibroblasts HFL1 (CCK-8); details: Homo sapiens, HFL1, 48 h
Outline: (§1)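 Seed 2×10^4 cells/mL; adhere 24 h, 37° C/5% CO2. Compounds, serial concentrations, triplicate, 48 h. CCK-8 2 h, A450. IR=(1−Ai/Ao)×100% vs blank; IC50 fitted. Pirfenidone as positive control.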

[2] = test system: human hepatic stellate cells LX-2; experiment: Anti-fibrosis activity test: inhibition of proliferation of human hepatic stellate cells LX-2 (CCK-8); details: Homo sapiens, 48 h
Outline: as §1

[3] = test system: human fibrosarcoma cells HT-1080; experiment: Anti-fibrosis activity test: inhibition of proliferation of human fibrosarcoma cells HT-1080 (CCK-8); details: Homo sapiens, HT-1080, 48 h
Outline: as §1

[4] = test system: human dermal fibroblasts CCC-ESF-1; experiment: Anti-fibrosis activity test: inhibition of proliferation of human dermal fibroblasts CCC-ESF-1 (CCK-8); details: Fibroblast
Outline: as §1

[5] = test system: human embryonic lung fibroblast IMR-90; experiment: Anti-fibrosis activity test: inhibition of proliferation of human embryonic lung fibroblast IMR-90 (CCK-8)
Outline: as §1

[6] = test system: cardiac fibroblast RAT-iCell-C002; experiment: Anti-fibrosis activity test: inhibition of proliferation of cardiac fibroblast RAT-iCell-C002 (CCK-8); details: Cardiac fibroblast, 48 h
Outline: as §1

[7] = test system: mouse macrophages (RAW264.7); experiment: Lipopolysaccharide-induced NO secretion in macrophages (Griess); details: Mus musculus, RAW264.7, 24 h, RAW264.7, LPS 1 μg/ml, a/b isomers given as first/second symbol, read-out: IC50 (μM), inhibition of lipopolysaccharide-induced NO secretion in macrophages
Outline: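 LPS 1 μg/ml, 24 h, RAW264.7 (DMEM/10% FBS); cpds at varied concs. Supernatant NO by Griess, A548; % inhibition vs blank medium.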

[8] = CCK-8, 48 hours after administration
[9] = human lung fibroblasts HFL1, CCK-8, 48 hours
[10] = human hepatic stellate cells LX-2, CCK-8, 48 hours
[11] = human fibrosarcoma cells HT-1080, CCK-8, 48 hours
[12] = human dermal fibroblasts CCC-ESF-1, CCK-8, 48 hours
[13] = human embryonic lung fibroblast IMR-90, CCK-8, 48 hours
[14] = cardiac fibroblast RAT-iCell-C002, CCK-8, 48 hours
[15] = Homo sapiens, CCC-ESF-1 cells, 48 h, CCK-8
[16] = Homo sapiens, IMR-90 cells, 48 h, CCK-8

Compound	IC50 (BHK-21 cells; [8])	IC50 [1, 9]	IC50 [2, 10]	IC50 [3, 11]	IC50 [4, 12]	IC50 [5, 13]	IC50 [6, 14]	IC50 [7]	IC50 (BHK-21 cells; 48 h, CCK-8)	IC50 ([1]; HFL1 cells, 48 h, CCK-8)	IC50 ([2]; LX-2, 48 h, LX-2 cells, CCK-8)	IC50 ([3]; HT-1080 cells, 48 h, CCK-8)	IC50 [4, 15]	IC50 [5, 16]	IC50 ([6]; RAT-iCell-C002 cells, CCK-8)
O=C1c2c([nH]c3ccc(F)cc3c2=O)-c2cccn21 [Compound 156a, 7-Fluoro-9H-pyrrolizino[1,2-b]quinoline-9,10(4H)-dione]	0.05 to 5 mM	< 0.05 mM	< 0.05 mM	0.05 to 5 mM	0.05 to 5 mM	0.05 to 5 mM	0.05 to 5 mM	1 to 10 µM							
O=C1c2c(c(=O)c3ccccc3n2CCN2CCNCC2)-c2cccn21 [Compound 792a, 6-(2-(Piperazin-1-yl)ethyl)-5H-pyrrolizino[2,1-b]quinoline-5,11(6H)-dione]								0.1 to 1 µM	0.05 to 5 mM	0.05 to 5 mM	0.05 to 5 mM	0.05 to 5 mM	< 0.05 mM	0.05 to 5 mM	0.05 to 5 mM
O=C1c2c(n(Cc3ccccc3F)c3cccc(Cl)c3c2=O)-c2cccn21 [Compound 480a, 8-Chloro-4-(2-fluorobenzyl)-9H-pyrrolizino[1,2-b]quinoline-9,10(4H)-dione]	0.05 to 5 mM	0.05 to 5 mM	0.05 to 5 mM	0.05 to 5 mM	0.05 to 5 mM	0.05 to 5 mM	< 0.05 mM	10 to 50 µM							
Cc1ccc2c(O)c3c(nc2c1)C(=O)n1cccc1-3 [Compound 778b, 11-hydroxy-8-methyl-5H-pyrrolizino[2,1-b]quinolin-5-one]								1 to 10 µM	0.05 to 5 mM	0.05 to 5 mM	0.05 to 5 mM	0.05 to 5 mM	0.05 to 5 mM	0.05 to 5 mM	0.05 to 5 mM
O=C1c2c(n(-c3ccc(F)cc3)c3ccc(C(F)(F)F)cc3c2=O)-c2cccn21 [Compound 259a, 4-(4-Fluorophenyl)-7-(trifluoromethyl)-9H-pyrrolizino[1,2-b]quinoline-9,10(4H)-dione]	0.05 to 5 mM	0.05 to 5 mM	0.05 to 5 mM	0.05 to 5 mM	5 to 20 mM	0.05 to 5 mM	0.05 to 5 mM	1 to 10 µM							
O=C1c2c(n(Cc3ccc(Cl)cc3)c3cccc(F)c3c2=O)-c2cccn21 [Compound 471a, 4-(4-Chlorobenzyl)-8-fluoro-9H-pyrrolizino[1,2-b]quinoline-9,10(4H)-dione]	0.05 to 5 mM	0.05 to 5 mM	< 0.05 mM	0.05 to 5 mM	0.05 to 5 mM	0.05 to 5 mM	0.05 to 5 mM	0.1 to 1 µM							
N#Cc1cccc2nc3c(c(OCc4ccccc4F)c12)C(=O)n1cccc1-3 [Compound 469b, 9-((2-fluorobenzyl)oxy)-10-oxo-10H-pyrrolizino[1,2-b]quinoline-8-carbonitrile]	0.05 to 5 mM	0.05 to 5 mM	0.05 to 5 mM	0.05 to 5 mM	0.05 to 5 mM	0.05 to 5 mM	0.05 to 5 mM	10 to 50 µM							
O=C1c2c(n(C(=O)c3ccco3)c3cc(N4CCNCC4)c(F)cc3c2=O)-c2cccn21 [Compound 343a, 7-Fluoro-4-(furan-2-carbonyl)-6-(piperazin-1-yl)-9H-pyrrolizino[1,2-b]quinoline-9,10(4H)-dione]	0.05 to 5 mM	0.05 to 5 mM	0.05 to 5 mM	< 0.05 mM	0.05 to 5 mM	0.05 to 5 mM	0.05 to 5 mM	1 to 10 µM							
Cc1cc2[nH]c3c(c(=O)c2cc1C)-c1cccn1C3=O [Compound 781a, 8,9-Dimethyl-5H-pyrrolizino[2,1-b]quinoline-5,11(6H)-dione]								10 to 50 µM	0.05 to 5 mM	0.05 to 5 mM	0.05 to 5 mM	0.05 to 5 mM	0.05 to 5 mM	0.05 to 5 mM	0.05 to 5 mM
O=C1c2c(nc3ccc(C(F)(F)F)cc3c2Oc2ccc(F)cc2)-c2cccn21 [Compound 259b, 9-(4-fluorophenoxy)-7-(trifluoromethyl)-10H-pyrrolizino[1,2-b]quinolin-10-one]	0.05 to 5 mM	0.05 to 5 mM	0.05 to 5 mM	0.05 to 5 mM	5 to 20 mM	< 0.05 mM	0.05 to 5 mM	1 to 10 µM							
Cc1ccc(C)c2c(O)c3c(nc12)C(=O)n1cccc1-3 [Compound 783b, 11-hydroxy-7,10-dimethyl-5H-pyrrolizino[2,1-b]quinolin-5-one]								1 to 10 µM	0.05 to 5 mM	0.05 to 5 mM	0.05 to 5 mM	0.05 to 5 mM	0.05 to 5 mM	0.05 to 5 mM	0.05 to 5 mM
O=C1c2c(n(Cc3ccc(F)cc3)c3cccc(Cl)c3c2=O)-c2cccn21 [Compound 474a, 8-Chloro-4-(4-fluorobenzyl)-9H-pyrrolizino[1,2-b]quinoline-9,10(4H)-dione]	< 0.05 mM	0.05 to 5 mM	0.05 to 5 mM	0.05 to 5 mM	0.05 to 5 mM	0.05 to 5 mM	0.05 to 5 mM	1 to 10 µM							
O=C1c2c(nc3cc(F)ccc3c2OCc2cccc(F)c2)-c2cccn21 [Compound 491b, 6-fluoro-9-((3-fluorobenzyl)oxy)-10H-pyrrolizino[1,2-b]quinolin-10-one]	0.05 to 5 mM	0.05 to 5 mM	0.05 to 5 mM	0.05 to 5 mM	0.05 to 5 mM	0.05 to 5 mM	0.05 to 5 mM	1 to 10 µM							
C=CCOc1c2c(nc3cc(N4CCNCC4)c(F)cc13)-c1cccn1C2=O [Compound 349b, 9-(allyloxy)-7-fluoro-6-(piperazin-1-yl)-10H-pyrrolizino[1,2-b]quinolin-10-one]	0.05 to 5 mM	0.05 to 5 mM	0.05 to 5 mM	0.05 to 5 mM	0.05 to 5 mM	0.05 to 5 mM	0.05 to 5 mM	1 to 10 µM							
O=C(O)Cn1c2c(c(=O)c3cc(F)ccc31)C(=O)n1cccc1-2 [Compound 153a, 2-(7-Fluoro-9,10-dioxo-9H-pyrrolizino[1,2-b]quinolin-4(10H)-yl)acetic acid]	< 0.05 mM	0.05 to 5 mM	< 0.05 mM	0.05 to 5 mM	0.05 to 5 mM	0.05 to 5 mM	0.05 to 5 mM	1 to 10 µM							
O=C1c2nc3ccccc3c(OCCCN3CCCCC3)c2-c2cccn21 [Compound 786b, 11-(3-(piperidin-1-yl)propoxy)-5H-pyrrolizino[2,1-b]quinolin-5-one]								1 to 10 µM	0.05 to 5 mM	0.05 to 5 mM	0.05 to 5 mM	0.05 to 5 mM	0.05 to 5 mM	0.05 to 5 mM	0.05 to 5 mM
O=C1c2c(nc3ccc(C(F)(F)F)cc3c2Oc2ccc(Cl)cc2)-c2cccn21 [Compound 276b, 9-(4-chlorophenoxy)-7-(trifluoromethyl)-10H-pyrrolizino[1,2-b]quinolin-10-one]	0.05 to 5 mM	0.05 to 5 mM	0.05 to 5 mM	0.05 to 5 mM	0.05 to 5 mM	0.05 to 5 mM	0.05 to 5 mM	1 to 10 µM							
O=C1c2c(nc3c(C(F)(F)F)cccc3c2OCc2ccccc2Cl)-c2cccn21 [Compound 457b, 9-((2-chlorobenzyl)oxy)-5-(trifluoromethyl)-10H-pyrrolizino[1,2-b]quinolin-10-one]	0.05 to 5 mM	0.05 to 5 mM	0.05 to 5 mM	0.05 to 5 mM	0.05 to 5 mM	0.05 to 5 mM	0.05 to 5 mM	1 to 10 µM							
O=C1c2nc3ccccc3c(OCCCN3CCNCC3)c2-c2cccn21 [Compound 793b, 11-(3-(piperazin-1-yl)propoxy)-5H-pyrrolizino[2,1-b]quinolin-5-one]								0.1 to 1 µM	0.05 to 5 mM	0.05 to 5 mM	0.05 to 5 mM	0.05 to 5 mM	0.05 to 5 mM	0.05 to 5 mM	0.05 to 5 mM
O=C1c2c(n(C3CC3)c3cc(N4CCNCC4)c(F)cc3c2=O)-c2cccn21 [Compound 340a, 4-Cyclopropyl-7-fluoro-6-(piperazin-1-yl)-9H-pyrrolizino[1,2-b]quinoline-9,10(4H)-dione]	0.05 to 5 mM	0.05 to 5 mM	0.05 to 5 mM	5 to 20 mM	0.05 to 5 mM	0.05 to 5 mM	0.05 to 5 mM	0.1 to 1 µM							
